Results reported in patent US20250059229A1, “Compositions and Methods for Selective Labeling of Secondary Amines” (Emory University, priority 2021, published 2025).

Assay: Fluorescence (chromophoric) properties of 2H-indazole-3-carbaldehyde
Format: physicochemical
Details: FIG. 9D

## O=Cc1[nH]nc2ccccc12 [2H-indazole-3-carbaldehyde]
  fluorescence wavelength: about 500 nm
Compared to unmodified PAF
  increase in fluorescence as compared to unmodified PAF: 100 fold
